Results: BindingDB's records for doi:10.1016/j.bmcl.2005.06.036 (Unit&#233, 2005)

Assays:
[1] = biological target: HIV-1 integrase (Human immunodeficiency virus 1); assay: In vitro inhibitory concentration against HIV-1 recombinant integrase activity in strand transfer assay
[2] = biological target: HIV-1 integrase (Human immunodeficiency virus 1); assay: In vitro inhibitory concentration against HIV-1 recombinant integrase activity in standard 3'-processing assay

SMILES: O=C(c1ccc(O)cc1)c1ccc2ccc(/C=C/c3ccc(O)c(O)c3)nc2c1O [{2-[(E)-2-(3,4-Dihydroxy-phenyl)-vinyl]-8-hydroxy-quinolin-7-yl}-(4-hydroxy-phenyl)-methanone]
- IC50 [1]: > 100 µM
- IC50 [2]: > 100 µM
